Test results as given in ChEMBL document CHEMBL1122713, “Isomeric N-methyl-7-deazaguanines: synthesis, structural assignment, and inhibitory activity on xanthine oxidase” (J Med Chem, 1984).

Target: Xanthine dehydrogenase/oxidase (Bos taurus, UniProt P80457)
Experiment: Compound is evaluated for competitive inhibition against xanthine oxidase from cow's milk

Xanthine dehydrogenase/oxidase, sequence (P80457 whole entry): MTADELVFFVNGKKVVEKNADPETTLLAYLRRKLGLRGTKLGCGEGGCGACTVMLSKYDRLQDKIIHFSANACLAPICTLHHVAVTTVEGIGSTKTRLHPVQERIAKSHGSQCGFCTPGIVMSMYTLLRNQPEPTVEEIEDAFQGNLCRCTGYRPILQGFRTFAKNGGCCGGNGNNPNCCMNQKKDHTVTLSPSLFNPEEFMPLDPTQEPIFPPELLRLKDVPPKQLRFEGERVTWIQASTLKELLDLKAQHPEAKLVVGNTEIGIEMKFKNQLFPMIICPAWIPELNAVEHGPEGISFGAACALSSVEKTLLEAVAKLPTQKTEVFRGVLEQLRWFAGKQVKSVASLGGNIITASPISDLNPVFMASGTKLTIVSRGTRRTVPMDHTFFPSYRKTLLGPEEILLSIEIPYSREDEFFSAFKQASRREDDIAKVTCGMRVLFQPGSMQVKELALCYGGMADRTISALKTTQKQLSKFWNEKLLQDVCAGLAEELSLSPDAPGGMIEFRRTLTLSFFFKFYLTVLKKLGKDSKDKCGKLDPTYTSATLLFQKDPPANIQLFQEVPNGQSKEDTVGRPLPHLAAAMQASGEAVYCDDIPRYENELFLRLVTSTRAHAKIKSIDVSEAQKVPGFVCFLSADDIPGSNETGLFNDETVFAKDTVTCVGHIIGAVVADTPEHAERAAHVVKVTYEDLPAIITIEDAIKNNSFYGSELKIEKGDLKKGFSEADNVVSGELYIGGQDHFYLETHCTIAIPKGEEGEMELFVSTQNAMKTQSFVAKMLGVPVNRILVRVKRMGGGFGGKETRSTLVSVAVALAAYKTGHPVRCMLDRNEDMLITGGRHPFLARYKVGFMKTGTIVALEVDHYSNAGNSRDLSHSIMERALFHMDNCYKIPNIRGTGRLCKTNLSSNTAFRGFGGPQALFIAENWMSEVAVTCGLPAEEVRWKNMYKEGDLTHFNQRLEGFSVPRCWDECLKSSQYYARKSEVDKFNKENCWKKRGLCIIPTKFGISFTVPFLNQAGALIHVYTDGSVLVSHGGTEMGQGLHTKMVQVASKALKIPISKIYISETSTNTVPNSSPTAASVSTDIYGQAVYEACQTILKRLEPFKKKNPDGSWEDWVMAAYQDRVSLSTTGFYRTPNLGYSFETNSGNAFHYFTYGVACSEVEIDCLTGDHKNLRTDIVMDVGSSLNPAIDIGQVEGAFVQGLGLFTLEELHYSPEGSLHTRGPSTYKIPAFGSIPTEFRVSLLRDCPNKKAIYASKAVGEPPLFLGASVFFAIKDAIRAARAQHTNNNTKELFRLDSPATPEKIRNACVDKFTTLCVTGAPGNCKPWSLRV

Ki | SMILES
4.5 µM | Cn1c(N)nc(O)c2ccnc1-2
3 µM | Cn1ccc2c(=O)[nH]c(N)nc21
40 µM | Cn1c(N)nc2nccc-2c1O
3 µM | Nc1nc2c(c(=O)[nH]1)CC=N2 [7-DEAZAGUANINE]
